Consider 3 compounds from ChEMBL document CHEMBL1124075, “Design, synthesis, and biological activity of a peptide mimic of vasopressin” (J Med Chem, 1988).

Bridge positions count the residues as written; N and C are the ends. Square brackets hold non-standard residues; d marks the D form. Peptide text beside a SMILES is read from it. Mpa = O=C(O)CCS

The target of one assay is Vasopressin V2 receptor (Sus scrofa, UniProt P32307). The assay can be described thus: Inhibition of LVP-sensitive adenylate cyclase in a pig renal medullary preparation. In kind it is tissue-based, Renal medulla.
Vasopressin V2 receptor, sequence (P32307 whole entry): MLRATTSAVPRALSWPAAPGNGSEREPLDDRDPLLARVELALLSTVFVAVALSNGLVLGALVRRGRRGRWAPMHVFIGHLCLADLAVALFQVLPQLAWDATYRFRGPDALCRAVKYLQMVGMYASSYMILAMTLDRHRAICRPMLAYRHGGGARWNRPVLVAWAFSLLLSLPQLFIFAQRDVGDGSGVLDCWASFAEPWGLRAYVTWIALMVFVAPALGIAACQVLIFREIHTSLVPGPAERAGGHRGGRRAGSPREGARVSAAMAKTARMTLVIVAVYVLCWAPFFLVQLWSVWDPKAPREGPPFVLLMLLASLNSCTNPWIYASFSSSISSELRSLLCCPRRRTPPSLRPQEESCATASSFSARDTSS
Assay [1] addresses Vasopressin V2 receptor (Sus scrofa) (UniProt P32307). Put plainly: Vasopressin V2 receptor binding affinity measured by competition with tritiated LVP lysine vasopressin in pig renal medullary preparation. The settings on record: Renal medulla.

Vasopressin V2 receptor (Sus scrofa), sequence (P32307 whole entry): as above

`CC(C)[C@@H]1NC(=O)[C@H](Cc2ccccc2)NC(=O)[C@H](Cc2ccccc2)NC(=O)CCSSC[C@@H](C(=O)N2CCC[C@H]2C(=O)N[C@@H](CCCN=C(N)N)C(=O)NCC(N)=O)NC(=O)[C@H](CC(N)=O)NC1=O` ([Mpa]FFVNCPRG-NH2; disulfide 1-6): the Ki (in general, the equilibrium dissociation constant of an inhibitor or competing ligand from its target) at Vasopressin V2 receptor stood at 0.01 µM. The same compound gave a K bind in assay [1] of 0.1 µM.
In the same order, the values of `CC(C)[C@@H]1NC(=O)[C@H](Cc2ccccc2)NC(=O)[C@H](Cc2ccccc2)NC(=O)CCC[C@H](C(=O)N2CCC[C@H]2C(=O)N[C@@H](CCCN=C(N)N)C(=O)NCC(N)=O)NC(=O)[C@H](CC(N)=O)NC1=O` are 9.2 µM and 29 µM.
In the same order, the values of `CC(C)[C@@H]1NC(=O)[C@H](Cc2ccccc2)NC(=O)[C@H](Cc2ccccc2)NC(=O)CCC[C@@H](C(=O)N2CCC[C@H]2C(=O)N[C@@H](CCCN=C(N)N)C(=O)NCC(N)=O)NC(=O)[C@H](CC(N)=O)NC1=O` are 7 µM and 15 µM.
